Test results from patent US20260317277A1, “ARYLALKYLAMINE COMPOUND, AND PREPARATION METHOD THEREFOR AND USE THEREOF” (RENHE YIKANG GROUP CO., LTD., priority 2024, published 2026).

Assays:
[1] = Pharmacokinetic study in SD rats; type: in vivo, Male Sprague-Dawley (SD) rats; details: male SD rats, oral gavage; Evocalcet = 100
Procedure: Animal Information: Male Sprague-Dawley (SD) rats, aged 7-8 weeks, were used. Each group consisted of 3-5 rats.
Dosing Information: The rats were fasted for more than 12 hours prior to administration. A single dose was administered via oral gavage.
Blood Sampling Time Points: Blood samples were collected from the tail vein before administration and at 0.25, 0.5, 1, 2, 4, 6, 8, and 24 hours post-administration. A volume of 100 μL of blood was collected at each time point.
Sample Processing and Storage: The blood samples were transferred into 1.5 mL microcentrifuge tubes, with 50 μL per tube (two tubes per sample). Centrifugation was completed within 2 hours. Whole blood samples were kept on ice prior to centrifugation. Centrifugation was performed at 4000 rpm, 2-8° C., for 10 minutes. After collecting the supernatant, it was stored at −80° C. or below if not analyzed immediately.
Column: An InfinityLab Poroshell 120 SB-C18 column (2.1×100 mm, 2.7 μm) was used. Column Temperature: The temperature was maintained at 30° C. Flow Rate: The flow rate was set at 0.3 mL/min. Run Time: The total run time was 9.5 minutes. Post-run Time: A post-run time of 2 minutes was applied. Injection Volume: An injection volume of 2 μL was used. Mobile Phase: A mixture of methanol and 0.1% formic acid was employed as the mobile phase. Gradient Elution: Gradient elution was performed according to the table below.
b) the Mass Spectrometry Conditions were Set as Follows: […]
Preparation of Standard Solutions: Appropriate volumes of Evocalcet, Compound 2, and Compound 3 stock solutions were precisely measured and diluted with 50% methanol to prepare standard solutions with concentrations of 80, 200, 1000, 5000, 10000, 20000, and 40000 ng/mL.
Preparation of Internal Standard (Clenbuterol Hydrochloride) Solution: 10 mg of clenbuterol hydrochloride was accurately weighed and transferred into a 10 mL volumetric flask. […] An appropriate volume of the stock solution was precisely measured and diluted with methanol to prepare a 2000 ng/mL internal standard working solution. […]

[2] = Review Report on Evocalcet Tablets 1 mg and 2 mg, March 2018; cited from earlier work

SMILES	Relative bioavailability (%) [1] [%]	adverse reactions [2]
C[C@@H](N[C@H]1CCN(c2ccc(CC(=O)O)cc2F)C1)c1cccc2ccccc12 [Compound 2, 2-(3-fluoro-4-((S)-3-(((R)-1-(naphthalen-1-yl)ethyl)amino)pyrrolidin-1-yl)phenyl)acetic Acid]	136	
Cc1cc(CC(=O)O)ccc1N1CC[C@H](N[C@H](C)c2cccc3ccccc23)C1 [Compound 3, 2-(3-methyl-4-((S)-3-(((R)-1-(naphthalen-1-yl)ethyl)amino)pyrrolidin-1-yl)phenyl)acetic Acid]	144	
C[C@@H](N[C@H]1CCN(c2ccc(CC(=O)O)cc2)C1)c1cccc2ccccc12 [Evocalcet]	100	hypocalcemia, vomiting, nausea, chills, QT prolongation, mood disturbances, cardiac arrhythmia, hypotension, and cramps
